Assay results: patent US5795561A, “Radioiodinated phospholipid ether analogues” (The Board of Regents of the University of Michigan, priority 1994, dated 1998)
Like-named read-outs stand apart in the source and are kept apart here.

Legend:
[1] = test system: Walker 256 sarcoma; conditions: rat, in vivo
Text: (§2) Both types of lesions were located in the thigh of the rat. Tumor bearing lesions were produced by implantation of Walker 256 sarcoma cells and inflammatory granuloma lesions were developed using carrageenan irritation in accordance with the method described by Atkinson, et al., Agents and Actions, Vol. 8, pages 263-267, 1978.

[2] = Tissue distribution of radioactivity after IV administration in normal (control) rats (Tables 1-4); type: in vivo, female Sprague Dawley rats; conditions: rat, 125I-labelled; for tissue uptake at 6 h: 6 hours after IV, N = 3, mean ± standard error; for tissue uptake at 24 h: 24 hours after IV
Protocol: (§1) Radiolabelled compounds 1-[12-(m-iodophenyl)-dodecyl]-2-methyl-rac-glycero-3-phosphocholine (ET-12IP-OMe; Example 2, compound 18) and 1-[12-(m-iodophenyl)-dodecyl]-propanediol-3-phosphocholine (ET-12IP-OH; Example 3, compound 24) were prepared and administered to two sets of female Sprague Dawley rats: normal rats (control) and rats bearing tumors resulting from Walker 256 sarcoma cells which had been implanted into the thigh. The labelled compounds (5-35 μCi ^125 I) were administered intravenously in a 2% Tween 20-saline vehicle. At various times following administration the animals were sacrificed, and selected tissue samples were removed. The tissue samples were weighed and placed in cellulose acetate capsules. The radioactivity was then counted (85% efficiency) using a well scintillation counter (Searle 1185).

[3] = Tissue distribution of radioactivity after IV administration in rats bearing Walker 256 sarcoma (Tables 1-4); type: in vivo, female Sprague Dawley rats; conditions: rat, 125I-labelled; for tissue uptake at 6 h: 6 hours after IV; for tissue uptake at 24 h: 24 hours after IV
Protocol: as §1

[4] = test system: Walker 256 sarcoma; assay: as above; type: in vivo, female Sprague Dawley rats
Protocol: as §1

[5] = test system: inflammatory granuloma lesions; conditions: rat, in vivo
Text: as §2

[6] = Tissue distribution 24 hours after I.V. administration to rats bearing the Walker-256 carcinosarcoma (Tables 5 and 6); type: in vivo, Sprague-Dawley rats; conditions: rat, iv, tumor-bearing rats
Protocol: Tissue distribution studies were conducted with the alkyl lysophospholipid analogues of general Formula II.

[7] = test system: human HTB 77 ovarian adenocarcinoma, NCI 69 human small cell carcinoma, and human HTB 63 melanoma; assay: In vivo tumor localization and scintigraphy in athymic nude mice with subcutaneous human tumors (Example 8)
[8] = test system: HTB 63 human melanoma tumors; assay: Tissue distribution in nude mice bearing HTB 63 human melanoma tumors (FIG. 18); type: in vivo; conditions: 13 days post-injection (FIG. 18)
Text: FIG. 18 is a bar graph showing tissue distribution of radioiodinated 12-(m-iodophenyl)-dodecyl phosphocholine in nude mice bearing HTB 63 human melanoma tumors at 13 days post-injection.
FIG. 18 is a bar graph which vividly illustrates the relative difference in tissue concentration of compound 50 in nude mice bearing HTB 63 human melanoma tumors at 13 days post-injection. The tissue concentration in the tumor tissue is remarkable.

[9] = test system: human tumor models; assay: Tissue distribution in athymic mice human tumor models (FIG. 17); type: in vivo, athymic nude mice; conditions: 13 days post-administration, % dose/gram of tissue plotted (FIG. 17)
Protocol: FIG. 17 is a bar graph showing tissue distribution in the blood, liver, and specified tumor tissue of radioiodinated 12-(m-iodophenyl)-dodecyl phosphocholine in nude mice 13 days post-administration; and
Tumor:blood levels greater than 25:1 were recorded in all athymic mice human tumor models.
FIG. 17 is a bar graph showing the tissue distribution in the blood, liver, and specified tumor tissue of compound 50 in nude mice 13 days post-administration. The data is expressed in terms of % dose/gram of tissue.

[10] = test system: Walker 256 sarcomas; assay: In vivo tumor localization in rats with intramuscular Walker 256 sarcomas (Example 8); set-up: species or system Sprague-Dawley rats; conditions: intravenous injection
Protocol: 12-(m-Iodophenyl)dodecyl phosphocholine (compound 50) was administered by intravenous injection to Sprague-Dawley rats with intramuscular Walker 256 sarcomas and athymic nude mice with subcutaneous human tumors, specifically, human HTB 77 ovarian adenocarcinoma, NCI 69 human small cell carcinoma, and human HTB 63 melanoma.

[11] = test system: inflammatory granuloma lesions; assay: Gamma-camera scintigraphy in rats bearing inflammatory lesions (granuloma)
Text: as §2

[12] = test system: Walker 256 sarcoma; assay: Gamma-camera scintigraphy in tumor-bearing rats
Text: as §2

[13] = test system: tumor; conditions: background; cited from earlier work
[14] = blood, read-out: Radioactivity in blood
[15] = kidney, read-out: Radioactivity in kidney
[16] = liver, read-out: Radioactivity in liver
[17] = lung, read-out: Radioactivity in lung
[18] = muscle, read-out: Radioactivity in muscle
[19] = blood, tumor-bearing rats, N = 3, mean ± standard error, read-out: Radioactivity in blood
[20] = kidney, tumor-bearing rats, N = 3, mean ± standard error, read-out: Radioactivity in kidney
[21] = liver, tumor-bearing rats, N = 3, mean ± standard error, read-out: Radioactivity in liver
[22] = lung, tumor-bearing rats, N = 3, mean ± standard error, read-out: Radioactivity in lung
[23] = muscle, tumor-bearing rats, N = 3, mean ± standard error, read-out: Radioactivity in muscle
[24] = walker 256 tumor, Walker 256 sarcoma implanted in thigh, N = 3, mean ± standard error, read-out: Radioactivity in tumor
[25] = adrenal, read-out: Distribution of radioactivity: adrenal
[26] = blood, read-out: Distribution of radioactivity: blood
[27] = read-out: Distribution of radioactivity: tumor
[28] = kidney, read-out: Distribution of radioactivity: kidney
[29] = liver, read-out: Distribution of radioactivity: liver
[30] = lung, read-out: Distribution of radioactivity: lung
[31] = muscle, read-out: Distribution of radioactivity: muscle
[32] = thyroid, read-out: Distribution of radioactivity: thyroid
[33] = whole body scans 24 hours after administration

COC(COCCCCCCCCCCCCc1cccc([125I])c1)COP(=O)([O-])OCC[N+](C)(C)C (racemic) [ET-12IP-OMe, 1-[12-(m-iodophenyl)-dodecyl]-2-methyl-rac-glycero-3-phosphocholine]
localization in tumor [1]: capable of localizing in the tumor
tissue uptake at 6 h [2, 14]: 0.105 ± 0.009 %ID/g
tissue uptake at 24 h ([2]; blood, N = 4, mean ± standard error, read-out: Radioactivity in blood): 0.085 ± 0.001 %ID/g
tissue uptake at 6 h [2, 15]: 0.65 ± 0.114 %ID/g
tissue uptake at 24 h ([2]; kidney, N = 4, mean ± standard error, read-out: Radioactivity in kidney): 0.426 ± 0.03 %ID/g
tissue uptake at 6 h [2, 16]: 1.74 ± 0.125 %ID/g
tissue uptake at 24 h ([2]; liver, N = 4, mean ± standard error, read-out: Radioactivity in liver): 0.675 ± 0.02 %ID/g
tissue uptake at 6 h [2, 17]: 0.356 ± 0.012 %ID/g
tissue uptake at 24 h ([2]; lung, N = 4, mean ± standard error, read-out: Radioactivity in lung): 0.218 ± 0.01 %ID/g
tissue uptake at 6 h [2, 18]: 0.023 %ID/g
tissue uptake at 24 h ([2]; muscle, N = 4, mean ± standard error, read-out: Radioactivity in muscle): 0.034 ± 0.004 %ID/g
tissue uptake at 6 h [3, 19]: 0.231 ± 0.008 %ID/g
tissue uptake at 24 h [3, 19]: 0.096 ± 0.023 %ID/g
tissue uptake at 6 h [3, 20]: 1.31 ± 0.091 %ID/g
tissue uptake at 24 h [3, 20]: 0.463 ± 0.111 %ID/g
tissue uptake at 6 h [3, 21]: 3.59 ± 0.189 %ID/g
tissue uptake at 24 h [3, 21]: 0.743 ± 0.105 %ID/g
tissue uptake at 6 h [3, 22]: 0.873 ± 0.081 %ID/g
tissue uptake at 24 h [3, 22]: 0.299 ± 0.017 %ID/g
tissue uptake at 6 h [3, 23]: 0.046 ± 0.001 %ID/g
tissue uptake at 24 h [3, 23]: 0.027 ± 0.006 %ID/g
tissue uptake at 6 h [3, 24]: 1.12 ± 0.024 %ID/g
tissue uptake at 24 h [3, 24]: 1.11 ± 0.016 %ID/g
clearance of radioactivity from tissues ([4]; by 24 hours): radioactivity had cleared significantly from all of the tissues except for tumor tissue
tissues with the highest concentrations of radioactivity ([4]; six hours following administration): liver, kidney, and tumor tissues exhibiting the highest concentrations
localization in the inflammatory lesion [5]: little activity was associated with this area
tissue uptake at 24 h [6, 25]: 0.436 %ID/g
tissue uptake at 24 h [6, 26]: 0.096 %ID/g
tissue uptake at 24 h [6, 27]: 1.11 %ID/g
tissue uptake at 24 h [6, 28]: 0.463 %ID/g
tissue uptake at 24 h [6, 29]: 0.743 %ID/g
tissue uptake at 24 h [6, 30]: 0.299 %ID/g
tissue uptake at 24 h [6, 31]: 0.027 %ID/g
tissue uptake at 24 h [6, 32]: 7.34 %ID/g

CCCCCCCCCCCCCCCCOP(=O)([O-])OCC[N+](C)(C)Cc1cccc(I)c1 [Compound 60, hexadecyl-2-[N,N-dimethyl-N-(m-iodobenzyl)-ammonium] ethylphosphate]
localization in tumor tissues ([7]; similar studies to those with compound 50 (rat and athymic mouse models)): exhibited localization in tumor tissues

C[N+](C)(C)CCOP(=O)([O-])OCCCOCCCCCCCCCCCCc1cccc([125I])c1 [ET-12IP-H, 1-[12-(m-iodophenyl)-dodecyl]-propanediol-3-phosphocholine]
tissue uptake at 6 h [2, 14]: 0.475 ± 0.078 %ID/g
tissue uptake at 24 h ([2]; blood, N = 3, mean ± standard error (Table 4), read-out: Radioactivity in blood): 0.047 ± 0.035 %ID/g
tissue uptake at 6 h [2, 15]: 2.6 ± 0.107 %ID/g
tissue uptake at 24 h ([2]; kidney, N = 3, mean ± standard error (Table 4), read-out: Radioactivity in kidney): 0.257 ± 0.01 %ID/g
tissue uptake at 6 h [2, 16]: 1.35 ± 0.047 %ID/g
tissue uptake at 24 h ([2]; liver, N = 3, mean ± standard error (Table 4), read-out: Radioactivity in liver): 0.142 ± 0.033 %ID/g
tissue uptake at 6 h [2, 17]: 0.816 ± 0.031 %ID/g
tissue uptake at 24 h ([2]; lung, N = 3, mean ± standard error (Table 4), read-out: Radioactivity in lung): 0.129 ± 0.013 %ID/g
tissue uptake at 6 h [2, 18]: 0.083 ± 0.009 %ID/g
tissue uptake at 24 h ([2]; muscle, N = 3, mean ± standard error (Table 4), read-out: Radioactivity in muscle): 0.025 ± 0.001 %ID/g
tissue uptake at 6 h [3, 19]: 0.239 ± 0.024 %ID/g
tissue uptake at 24 h ([3]; blood, tumor-bearing rats, N = 3, mean ± standard error (Table 4), read-out: Radioactivity in blood): 0.036 ± 0.004 %ID/g
tissue uptake at 6 h [3, 20]: 1.77 ± 0.108 %ID/g
tissue uptake at 24 h ([3]; kidney, tumor-bearing rats, N = 3, mean ± standard error (Table 4), read-out: Radioactivity in kidney): 0.235 ± 0.018 %ID/g
tissue uptake at 6 h [3, 21]: 0.892 ± 0.083 %ID/g
tissue uptake at 24 h ([3]; liver, tumor-bearing rats, N = 3, mean ± standard error (Table 4), read-out: Radioactivity in liver): 0.139 ± 0.01 %ID/g
tissue uptake at 6 h [3, 22]: 0.525 %ID/g
tissue uptake at 24 h ([3]; lung, tumor-bearing rats, N = 3, mean ± standard error (Table 4), read-out: Radioactivity in lung): 0.105 %ID/g
tissue uptake at 6 h [3, 23]: 0.05 ± 0.009 %ID/g
tissue uptake at 24 h ([3]; muscle, tumor-bearing rats, N = 3, mean ± standard error (Table 4), read-out: Radioactivity in muscle): 0.014 ± 0.001 %ID/g
tissue uptake at 6 h [3, 24]: 1.03 ± 0.158 %ID/g
tissue uptake at 24 h ([3]; walker 256 tumor, Walker 256 sarcoma implanted in thigh, N = 3, mean ± standard error (Table 4), read-out: Radioactivity in tumor): 0.463 ± 0.063 %ID/g
tissue uptake at 24 h [6, 25]: 0.274 %ID/g
tissue uptake at 24 h [6, 26]: 0.036 %ID/g
tissue uptake at 24 h [6, 27]: 0.463 %ID/g
tissue uptake at 24 h [6, 28]: 0.235 %ID/g
tissue uptake at 24 h [6, 29]: 0.139 %ID/g
tissue uptake at 24 h [6, 30]: 0.105 %ID/g
tissue uptake at 24 h [6, 31]: 0.014 %ID/g
tissue uptake at 24 h [6, 32]: 8.45 %ID/g

C[N+](C)(C)CCOP(=O)([O-])OCCCCCCCCCCCCc1cccc(I)c1 [compound 50, 12-(m-iodophenyl)-dodecyl phosphocholine]
tissue concentration in the tumor tissue [8]: remarkable
tissue distribution in blood, liver and specified tumor tissue [9]: the tumor contained the largest amount of radioactivity
tumor localization [10]: excellent tumor localization
clearance of background activity ([7]; beyond five days post-injection): all background activity had cleared from the liver and gastrointestinal tract
tumor localization ([7]; intravenous injection): excellent tumor localization

O=C([O-])CC(O)(CC(=O)[O-])C(=O)[O-].[67Ga+3] [gallium-67 citrate]
accumulation in granuloma (inflammatory lesion), scintigraphic scan ([11]; 24 hours after administration, for ET-12IP-OMe in relation to liver): high accumulation
accumulation in liver (scintigraphic scan) ([11]; granuloma-bearing rat, 24 hours after administration): high accumulation
localization in the inflammatory lesion [11, 33]: found to localize in the inflammatory lesion
accumulation in tumor (scintigraphic scan) ([12]; 24 hours after administration): high accumulation
accumulation in liver (scintigraphic scan) ([12]; tumor-bearing rat, 24 hours after administration): low accumulation
localization in tumor [12, 33]: capable of localizing in the tumor
accumulation in inflammatory lesions [13]: also accumulates in a variety of other inflammatory lesions
alteration of distribution by steroidal and antineoplastic drugs [13]: can be altered by a variety of steroidal and antineoplastic drugs
localization in tumor [13]: will localize, or accumulate, in a tumor
